In brackets after ≈: the same amount, converted by molar mass.
Assays:
Albumin = Albumin (Homo sapiens, UniProt P02768); test: Binding affinity to serum albumin in human plasma; assay type: ADME, cell-free
Transthyretin [1] = biological target: Transthyretin (Homo sapiens, UniProt P02766); test: Binding affinity to TTR in human plasma assessed as target occupancy incubated for 6 hrs in presence of E)-S-phenyl 3-(4-hydroxy-3,5-dimethyistyryl)benzothioate by fluorescence based competitive binding assay; assay type: cell-free
Transthyretin [2] = biological target: Transthyretin (Homo sapiens, UniProt P02766, V50M); test: Binding affinity to TTR V30M mutant (unknown origin) assessed as dissociation constant by ITC analysis
[3] = Cmax in male Sprague-Dawley rat at 0.1 mg/kg, po measured upto 8 hrs by LC-MS/MS analysis; details: in vivo
[4] = C0 in male Sprague-Dawley rat at 0.1 mg/kg, iv measured upto 8 hrs by LC-MS/MS analysis; details: in vivo
[5] = Volume of distribution at steady state in male Sprague-Dawley rat at 0.1 mg/kg, iv measured upto 8 hrs by LC-MS/MS analysis; assay type: ADME, organism-based; details: in vivo
[6] = Solubility of compound at pH 1.2 incubated for 4 hrs by HPLC or LC-MS/MS analysis; assay type: physicochemical; details: buffer, pH 1.2, 4 h
[7] = AUC (0 to 8 hrs) in male Sprague-Dawley rat at 0.1 mg/kg, po measured upto 8 hrs by LC-MS/MS analysis; assay type: ADME, organism-based; details: in vivo
[8] = Total clearance in male Sprague-Dawley rat at 0.1 mg/kg, iv measured upto 8 hrs by LC-MS/MS analysis; assay type: ADME, organism-based; details: in vivo
[9] = AUC (0 to 8 hrs) in male Sprague-Dawley rat at 0.1 mg/kg, iv measured upto 8 hrs by LC-MS/MS analysis; assay type: ADME, organism-based; details: in vivo
[10] = Plasma protein binding in rat assessed as unbound fraction at 1 uM incubated for 6 hrs by LC/MS/MS based equilibrium dialysis method; assay type: ADME, cell-free
[11] = Solubility of compound at pH 6.8 incubated for 4 hrs by HPLC or LC-MS/MS analysis; assay type: physicochemical; details: buffer, pH 6.8, 4 h
[12] = Tmax in male Sprague-Dawley rat at 0.1 mg/kg, po measured […] by LC-MS/MS analysis; assay type: ADME, organism-based; details: in vivo
[13] = pampa, 4 h, 500 µM
[14] = Oral bioavailability in male Sprague-Dawley rat at 0.1 mg/kg measured upto 8 hrs by LC-MS/MS analysis; assay type: ADME, organism-based; details: in vivo

Albumin, sequence (P02768 whole entry): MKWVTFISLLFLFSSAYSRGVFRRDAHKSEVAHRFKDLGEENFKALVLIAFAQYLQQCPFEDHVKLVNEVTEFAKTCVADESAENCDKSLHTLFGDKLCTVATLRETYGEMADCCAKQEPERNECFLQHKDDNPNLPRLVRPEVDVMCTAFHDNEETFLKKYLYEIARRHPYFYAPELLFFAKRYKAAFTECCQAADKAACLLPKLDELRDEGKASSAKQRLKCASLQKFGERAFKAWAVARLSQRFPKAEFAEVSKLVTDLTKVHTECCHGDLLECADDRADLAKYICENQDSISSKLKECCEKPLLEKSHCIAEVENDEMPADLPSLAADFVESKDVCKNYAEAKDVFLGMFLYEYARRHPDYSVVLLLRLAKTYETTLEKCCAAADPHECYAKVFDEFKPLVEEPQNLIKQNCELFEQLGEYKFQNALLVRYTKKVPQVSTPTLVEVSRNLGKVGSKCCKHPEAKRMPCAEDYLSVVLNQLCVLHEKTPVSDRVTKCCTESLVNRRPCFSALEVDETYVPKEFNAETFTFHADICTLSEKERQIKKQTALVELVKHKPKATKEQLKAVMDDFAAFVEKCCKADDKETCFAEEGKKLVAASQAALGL

SMILES	Activity (Albumin)	EC50 (Transthyretin [1])	Kd (Transthyretin [2])	Cmax [3]	C0 at 8 h [4]	Vdss [5]	solubility [6]	AUC [7]	CL [8]	AUC [9]	Fu [10]	solubility [11]	Tmax [12]	permeability [13]	bioavailability [14]
CCc1oc2ccccc2c1C(=O)c1cc(I)c(O)c(I)c1 [BENZIODARONE]	Active	8.9 µM	0.078 µM												
O=C(O)c1cc(/N=N/c2ccc(S(=O)(=O)Nc3ccccn3)cc2)ccc1O [SULFASALAZINE]														0.038 10^-6 cm/s	
CCc1oc2c(Cl)ccc(Cl)c2c1C(=O)c1cc(I)c(O)c(I)c1				77 ng/mL	1340 ng/mL	0.269 L/kg	< 0.02 µM	350 ng·h/mL	0.662 mL/min/kg	1746 ng·h/mL	< 0.01%	89.5 µM (≈ 52.5 µg/mL)	4 h		
COCCc1ccc(OCC(O)CNC(C)C)cc1 (stereo not given) [METOPROLOL]														1.8 10^-6 cm/s	
O=C(O)c1ccc2nc(-c3cc(Cl)cc(Cl)c3)oc2c1	Active			235 ng/mL	519 ng/mL	0.311 L/kg		1500 ng·h/mL	0.0993 mL/min/kg	2363 ng·h/mL			4 h		63.5%

The next lines start with the values.

Activity (Albumin)	EC50 (Transthyretin [1])	Kd (Transthyretin [2])	Cmax [3]	C0 at 8 h [4]	Vdss [5]	solubility [6]	AUC [7]	CL [8]	AUC [9]	Fu [10]	solubility [11]	Tmax [12]	permeability [13]	bioavailability [14]	SMILES
			395 ng/mL	1720 ng/mL	0.112 L/kg	< 0.01 µM	2524 ng·h/mL	0.343 mL/min/kg	3726 ng·h/mL	< 0.01%	> 100 µM	4 h			CCc1oc2cccc(Cl)c2c1C(=O)c1cc(I)c(O)c(I)c1
			303 ng/mL	1640 ng/mL	0.123 L/kg	< 0.01 µM	1918 ng·h/mL	0.44 mL/min/kg	3102 ng·h/mL	< 0.01%	> 100 µM	4 h			CCc1oc2cccc(C)c2c1C(=O)c1cc(I)c(O)c(I)c1
Active			240 ng/mL	1540 ng/mL	0.153 L/kg	< 0.02 µM	1489 ng·h/mL	0.405 mL/min/kg	2961 ng·h/mL	< 0.01%	> 100 µM	4 h			CCc1oc2cccc(I)c2c1C(=O)c1cc(I)c(O)c(I)c1
			390 ng/mL	1740 ng/mL	0.113 L/kg	0.054 µM (≈ 0.0322 µg/mL)	2476 ng·h/mL	0.343 mL/min/kg	3708 ng·h/mL	< 0.01%	> 100 µM	4 h			CCc1oc2cccc(Br)c2c1C(=O)c1cc(I)c(O)c(I)c1

From ChEMBL document CHEMBL5543166, “Development of Benziodarone Analogues with Enhanced Potency for Selective Binding to Transthyretin in Human Plasma” (J Med Chem, 2024)
